Experimental data from US11198869B2, “Angelman syndrome antisense treatment” (The Texas A&M University System, priority 2017, dated 2021).
Read-outs that look alike come from different tables or passages of the source.

Test system: UBE3A-AS
Experiment: UBE3A-AS steady state RNA (TaqMan qRT-PCR) in GABAergic iPSC-derived neurons
Format: cell-based, human
Details: for Difference, UBE3A-AS RNA level / UBE3A-AS RNA levels relative to the control treatment (in words): ASOs 10 μM; for low concentration that significantly reduced UBE3A-AS RNA levels: human iPSC-derived neurons; for Relative Potency: relative to ASO 4.S = 1; for decrease of UBE3A-AS RNA levels: 10 μM
Protocol: Human-specific ASOs were then designed to target this region, which included four ASOs targeting non-polymorphic regions in human and regions conserved (100%) with macaque (Rhesus and Cynomolgus) (Table 7 and FIG. 3A). Human induced pluripotent stem cell (iPSC) neural precursor cells were differentiated into GABAergic neurons for 14 DIV and then treated with a control ASO [ASO-C (10 μM, n=3)], Topotecan [Topo (1 μM, n=2)], and six ASOs targeting UBE3A-AS [ASO-1, ASO-2, ASO-3, ASO-4, ASO-5, and ASO-6 (10 μM, n=3)]. Additionally, an ASO targeting an intronic region downstream of SNORD109B was included (ASO-7). Six days post-treatment (20 DIV), RNA was isolated from the neurons and the steady state RNA levels of UBE3A-AS and UBE3A were estimated relative to the control treatment (FIG. 3B).
The potency of ASO-4 was further examined given its effect on UBE3A-AS RNA levels. GABAergic iPSC-derived neurons were treated at 14 DIV with a 10-point ½ log dose response curve of ASO-4 and Topotecan, as a positive control and for comparisons between treatment [1 nM, 3 nM, 10 nM, 30 nM, 100 nM, 300 nM, 1 μM, 3 μM, 10 μM, and 30 μM (ASO-4, n=6; Topotecan, n=2)]. At 20 DIV, the steady state RNA levels of UBE3A-AS were measured and dose response curves fitted to estimate the IC50 and Emax (i.e., maximum UBE3A-AS inhibition) (Table 9 and FIG. 4A). […]
Additional ASOs targeting the 5′-end of UBE3A-AS were then designed to optimize the target sequences of ASO-4 (ASO-4.1, ASO-4.2, ASO-4.3, and ASO-4.4) as well as two other target regions, ASO-3 (ASO-3.1 and ASO-3.2) and ASO-6 (ASO-6.1) (Table 11). Additionally, ASO-4 was manufactured at two different vendors for comparative purposes (ASO-4.S, Sigma; ASO-4.I, Integrated DNA Technologies). Human iPSC-derived neurons (GABAergic) were treated at 14 DIV with a […] ½ log dose curve of ASO-3.1, ASO-3.2, ASO-4.S, ASO-4.I, ASO-4.1, ASO-4.2, ASO-4.3, ASO-4.4, and ASO-6.1 [30 nM, 100 nM, 300 nM, 1 μM (n=6)]. At 20 DIV, the IC50 and Emax of each ASO was estimated as described above (FIG. 5A-B and Table 12). […] No significant difference was observed between ASO-4.S and ASO-4.I.
The potency of ASO-4 and ASO-6.1 was further examined in iPSC-derived neurons at a later time point in differentiation. GABAergic iPSC-derived neurons were treated at 29 DIV with a 10-point ½ log dose response curve of ASO-4 and ASO-6.1 [1 nM, 3 nM, 10 nM, 30 nM, 100 nM, 300 nM, 1 μM, 3 μM, 10 μM, and 30 μM (n=3)]. At 35 DIV, the IC50 and Emax of each ASO was estimated as described above (FIG. 5C-D and Table 14). The dose response curves of ASO-4 and ASO-6.1 were not similar (Parallelism test: F(3,172)=22.7, p<0.0001).
GABAergic and glutamatergic induced pluripotent stem cell (iPSC) derived neural precursor cells (NRC-100-010-001 and GNC-301-030-001, Cellular Dynamics International, Madison Wis.) were differentiated into neurons according to the manufactures protocol. Briefly, neural precursor cells were thawed and resuspended in chemically defined medium and added to sterile-culture plates coated with poly-D-lysine and laminin. The medium was replaced 24 hr after plating and then one-half of the medium was replaced every 3-5 days afterwards.
For cultured iPSC-derived neurons, RNA isolation and cDNA synthesis were performed using the Cell-to-CT kit (Thermo Fisher Scientific) in a lysate volume of 55 μl.
The steady state RNA levels of target transcripts were measured using TaqMan quantitative reverse-transcription PCR (qRT-PCR) assays. Total reaction volume was 10 uL, including 2 μl of cDNA, 1× Gene Expression Master mix (4369016, Thermo Fisher Scientific, Waltham, Mass.), and 1× TaqMan primer assay (Thermo Fisher Scientific). Cycling conditions were 2 minutes at 50° C., 10 minutes at 95° C., and 40 cycles of 15 seconds at 95° C. and 1 minute at 60° C., with readings taken at the 60° C. step of every cycle. […]

[1] = Topo 1 μM, 14 DIV to 20 DIV, ASO-1 minus labelled treatment
[2] = Topo 1 μM, 14 DIV to 20 DIV, ASO-R minus labelled treatment
[3] = Topo 1 μM, treated 14 DIV, RNA 20 DIV, normalized to ASO-C, ASO-C minus labelled treatment
[4] = treated 14 DIV, RNA 20 DIV, 10-point dose curve, 4-parameter logistic (Hill)
[5] = optimized ASOs, 14 DIV to 20 DIV, parallel model, 3-parameter logistic, read-out: IC50 (M), UBE3A-AS
[6] = optimized ASOs, treated 14 DIV, RNA 20 DIV, 5-point dose curve 30 nM-3 μM, full model, 3-parameter logistic, read-out: IC50 Estimate, UBE3A-AS
[7] = treated 29 DIV, RNA 35 DIV, 10-point dose curve, full model, 4-parameter logistic (Hill), read-out: IC50 Estimate, UBE3A-AS
[8] = Topo 1 μM, 14 DIV to 20 DIV, Topo minus labelled treatment
[9] = 14 DIV to 20 DIV, ASO-3 minus labelled treatment
[10] = 14 DIV to 20 DIV, ASO-5 minus labelled treatment
[11] = 14 DIV to 20 DIV, ASO-6 minus labelled treatment

Molecule	30 μM (Mean), normalized UBE3A-AS RNA level relative to vehicle (treated 14 DIV, RNA 20 DIV)	Difference, UBE3A-AS RNA level [1]	Difference, UBE3A-AS RNA level [2]	Difference, UBE3A-AS RNA level [3]	Emax Estimate (normalized UBE3A-AS RNA level relative to vehicle) [4]	3 μM (Mean), Emax, normalized UBE3A-AS RNA level relative to vehicle (treated 14 DIV, RNA 20 DIV)	30 μM (Mean), normalized UBE3A-AS RNA level relative to vehicle (treated 29 DIV, RNA 35 DIV)	low concentration that significantly reduced UBE3A-AS RNA levels [nM]	IC50 [5] [M]	Relative Potency (optimized ASOs, parallel model)	IC50 [6] [M]	IC50 [7] [M]	Difference, UBE3A-AS RNA level [8]	Difference, UBE3A-AS RNA level [9]	Difference, UBE3A-AS RNA level [10]	Difference, UBE3A-AS RNA level [11]	UBE3A-AS RNA levels relative to the control treatment (in words) (treated 14 DIV, RNA 20 DIV)	other results
CC[C@@]1(O)C(=O)OCc2c1cc1n(c2=O)Cc2cc3c(CN(C)C)c(O)ccc3nc2-1 [Topotecan, reference compound]	0.21	0.15	0.64	0.66	0.26													IC50 (Homo sapiens, Neuron, treated 14 DIV, RNA 20 DIV, 10-point dose curve 1 nM-30 μM, full model, 4-parameter logistic (Hill), read-out: IC50 Estimate (M), UBE3A-AS): 3.37e-08 M
A^L*G^L*A^L*a*t*g*g*c*a*c*a*t*c*t*5mC^L*T^L*T^L*G^L (NNNATGGCACATCTNNNN; LNA gapmer, PS, 5-methylcytosine, chemistry not fully specified) [ASO-4.4.PS.L]																		potency relative to the other ASOs of Cluster 1 (Cluster 1 ASOs, 18 DIV to 24 DIV): at least 3 times; Cluster (hierarchical clustering of fitted dose response curves) (candidate ASOs, Cluster 1 representing the 9 most potent ASOs): 1
C^O*U^O*G^O*G^O*t*g*t*c*a*a*c*a*a*g*C^O*C^O*A^O*A^O [ASO-6.1]						0.23	0.06	3	7.2e-07	highest relative potency	5.2e-07	5.17e-07						Relative Potency (optimized ASOs, parallel model, listed as ASO 6.1): 2.07; ASO-6.1/ASO-4 ratio: Emax (equivalence test) (treated 29 DIV, RNA 35 DIV): −1.3; ASO-6.1/ASO-4 ratio: IC50 (equivalence test) (treated 29 DIV, RNA 35 DIV): 1.03
G^O*U^O*A^O*C^O*U^O*c*t*t*c*c*t*c*a*g*t*C^O*A^O*U^O*C^O*C^O [ASO-2]		0.38	0.87	0.89									0.23	0.10	0.18	0.06	largest effect	Difference, UBE3A-AS RNA level (14 DIV to 20 DIV, ASO-4 minus labelled treatment): 0.02
U^O*A^O*G^O*A^O*A^O*t*g*g*c*a*c*a*t*c*t*C^O*U^O*U^O*G^O*G^O [ASO-4]	0.09	0.36	0.85	0.87	−0.06	0.29	0.11	3	1.49e-06	highest relative potency	1.06e-06	7.77e-07	0.21	0.08	0.16	0.04	largest effect	decrease of UBE3A-AS RNA levels (treated 14 DIV, RNA 20 DIV): 87%; decrease of UBE3A-AS RNA levels (treated 59 DIV, RNA 65 DIV): 81%; Relative Potency (optimized ASOs, parallel model, listed as ASO 4.S): 1; ASO-4/Topotecan Emax ratio (equivalence test) (treated 14 DIV, RNA 20 DIV): −4.1; ASO-4/Topotecan IC50 ratio (equivalence test) (treated 14 DIV, RNA 20 DIV): 1.2; IC50 (treated 14 DIV, RNA 20 DIV, 10-point dose curve 1 nM-30 μM, full model, 4-parameter logistic (Hill), read-out: IC50 Estimate (M), UBE3A-AS): 6.13e-07 M; Emax Estimate (normalized UBE3A-AS RNA level relative to vehicle) (treated 29 DIV, RNA 35 DIV, 4-parameter logistic (Hill)): 0.08
